Patent EP4653437A2 (Innovo Therapeutics Inc., priority 2023, dated 2024)

Assays:
A549 cells = assay: Measurement of PGE2-increasing activity in A549 cells (IL-1β stimulated, PGE2 quantified in supernatant); assay type: cell-based; settings: Homo sapiens, 24 h; concentration of 1 µM of each compound; IL-1β treated A549 cells; read-out: Increased PGE2 production in A549 cells
Procedure: A549 cells were prepared at a cell number of 1 x 10^5/mL in F12K medium containing 10% FBS (Fetal Bovine Serum), and 2 x 10^4/200 µL was added to each well of a 96-well cell culture plate, and then cultured in an incubator with 5% CO2 at 37 °C for 24 hours. After the culture was complete and all F12K medium was removed, all wells were washed once with 100 µL of PBS, and treated with 160 µL of serum-free F12K medium. Then, 20 µL of IL-1β diluted 10-fold to a concentration of 1 ng/mL in serum-free F12K medium was treated to wells to be treated with IL-1β, and 20 µL of serum-free F12K medium was treated to wells not treated with IL-1β. For the wells to be treated with the compound, 20 µL of the compound dissolved in 100% DMSO was diluted to a concentration 10 times of the desired compound concentration in serum-free F12K medium so that the final DMSO concentration treated to the cells was 0.1%, and for the wells not to be treated with the compound, 20 µL of DMSO diluted in serum-free F12K medium so that the final DMSO concentration treated to the cells was 0.1% was treated. In order to confirm the increase or decrease in the secretion amount of PGE2 in the supernatant collected after culturing for 24 hours in an incubator with 5% CO2 at 37 °C, PGE2 was quantified using the Prostaglandin E2 Parameter (SKGE004B).

human 15-PGDH = biological target: T1, human 15-PGDH (Homo sapiens, UniProt P15428); assay: Evaluation of 15-PGDH inhibitory activity (fluorescence enzyme assay, NAD+/PGE2); assay type: biochemical; settings: human 15-PGDH enzyme, fluorescence Vmax
T1 construct: purchased R&D System 5660-DH
T1 sequence (P15428 1-266): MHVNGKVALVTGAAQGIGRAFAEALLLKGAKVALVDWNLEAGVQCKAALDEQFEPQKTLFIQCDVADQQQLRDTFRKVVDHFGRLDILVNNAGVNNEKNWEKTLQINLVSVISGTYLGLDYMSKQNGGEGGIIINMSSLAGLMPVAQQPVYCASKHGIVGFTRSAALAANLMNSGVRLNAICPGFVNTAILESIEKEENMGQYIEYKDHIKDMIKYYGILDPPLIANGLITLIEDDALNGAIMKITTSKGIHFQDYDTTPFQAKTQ
Procedure: 15-PGDH inhibition activity of Example compounds was measured as follows. 6.7 ng of human 15-PGDH (R&D System# 5660-DH) enzyme (10 µL) was added to a black 96 well plate, 60 µL of buffer (50 mM Tris-HCl, pH 7.5, 0.01% Tween 20) was added, and 10 µL of 200 µM β-Nicotinamide adenine dinucleotide sodium salt (Sigma, Cat# N0632-5G) was added. 10 µL of (10x) compound solution in DMSO was added and reacted for 10 minutes at room temperature.

Row | IC50 (human 15-PGDH) | Structure (SMILES) | fold induction at 1 µM (A549 cells)
1 | ≤ 0.1 µM | COC(=O)c1cccc(-c2cccc3c(C(=O)N4CCCCC4)cnn23)c1 [Example 3, methyl 3-(3-(piperidine-1-carbonyl)pyrazolo[1,5-a]pyridin-7-yl)benzoate] | < 1.5
2 | ≤ 0.1 µM | Nc1cccc(-c2cccc3c(C(=O)N4CCCCC4)cnn23)c1 [Example 7, (7-(3-aminophenyl)pyrazolo[1,5-a]pyridin-3-yl)(piperidin-1-yl)methanone] | > 1.5
3 | ≤ 0.1 µM | Nc1cncc(-c2cccc3c(C(=O)N4CCCCC4)cnn23)c1 [Example 9, (7-(5-aminopyridin-3-yl)pyrazolo[1,5-a]pyridin-3-yl)(piperidin-1-yl)methanone] | > 1.5
4 | ≤ 0.1 µM | O=C(O)c1ccc(-c2cccc3c(C(=O)N4CCCCC4)cnn23)cc1 [Example 10, 4-(3-(piperidine-1-carbonyl)pyrazolo[1,5-a]pyridin-7-yl)benzoic acid] | < 1.5
5 | ≤ 0.1 µM | N#Cc1ccc(-c2cccc3c(C(=O)N4CCCCC4)cnn23)cc1 [Example 15, 4-(3-(piperidine-1-carbonyl)pyrazolo[1,5-a]pyridin-7-yl)benzonitrile] | > 1.5
6 | ≤ 0.1 µM | N#Cc1ccc(-c2cccc3c(C(=O)N4CCCCC4)cnn23)cn1 [Example 18, 5-(3-(piperidine-1-carbonyl)pyrazolo[1,5-a]pyridin-7-yl)picolinonitrile] | > 1.5
7 | > 1 µM | O=C(c1cc2c(-c3ccc4c(c3)OCO4)ncnc2[nH]1)N1CCCCC1 [Example 177, (4-(benzo[d][1,3]dioxol-5-yl)-7H-pyrrolo[2,3-d]pyrimidin-6-yl)(piperidin-1-yl)methanone] | –
8 | 0.1 to 1 µM | COc1ccc(-c2ccc3[nH]c(C(=O)N4CCCCC4)cc3n2)cc1OC [Example 181, (5-(3,4-dimethoxyphenyl)-1H-pyrrolo[3,2-b]pyridin-2-yl)(piperidin-1-yl)methanone] | –
9 | 0.1 to 1 µM | O=C(c1cc2nc(-c3ccc(F)cc3)ccc2[nH]1)N1CCCCC1 [Example 182, (5-(4-fluorophenyl)-1H-pyrrolo[3,2-b]pyridin-2-yl)(piperidin-1-yl)methanone] | –
10 | > 1 µM | O=C(c1cc2nc(-c3ccoc3)ccc2[nH]1)N1CCCCC1 [Example 183, (5-(furan-3-yl)-1H-pyrrolo[3,2-b]pyridin-2-yl)(piperidin-1-yl)methanone] | –
11 | 0.1 to 1 µM | O=C(c1cc2nc(-c3ccc(O)c(Cl)c3)ccc2[nH]1)N1CCCCC1 [Example 186, (5-(3-chloro-4-hydroxyphenyl)-1H-pyrrolo[3,2-b]pyridin-2-yl)(piperidin-1-yl)methanone] | –
12 | 0.1 to 1 µM | O=C(c1cc2nc(-c3ccc4c(c3)OCO4)ncc2[nH]1)N1CCCCC1 [Example 187, (2-(benzo[d][1,3]dioxol-5-yl)-5H-pyrrolo[3,2-d]pyrimidin-6-yl)(piperidin-1-yl)methanone] | –
13 | 0.1 to 1 µM | O=C(c1cc2nc(-c3coc4ccccc34)ccc2[nH]1)N1CCCCC1 [Example 188, (5-(benzofuran-3-yl)-1H-pyrrolo[3,2-b]pyridin-2-yl)(piperidin-1-yl)methanone] | –
14 | > 1 µM | O=C(c1cc2nc(-c3ccc4ccccc4c3)ccc2[nH]1)N1CCCCC1 [Example 189, (5-(naphthalen-2-yl)-1H-pyrrolo[3,2-b]pyridin-2-yl)(piperidin-1-yl)methanone] | –
15 | 0.1 to 1 µM | O=C(c1cc2nc(N3Cc4ccccc4C3=O)ccc2[nH]1)N1CCCCC1 [Example 191, 2-(2-(piperidine-1-carbonyl)-1H-pyrrolo[3,2-b]pyridin-5-yl)isoindolin-1-one] | –

Continued, molecule first:

Row | Structure (SMILES) | IC50 (human 15-PGDH) | fold induction at 1 µM (A549 cells)
16 | N#Cc1cccc(-c2cccc3c(C(=O)N4CCCCC4)cnn23)c1 [Example 6, 3-(3-(piperidine-1-carbonyl)pyrazolo[1,5-a]pyridin-7-yl)benzonitrile] | ≤ 0.1 µM | > 1.5
17 | O=C(c1cnn2c(-c3ccnc(Cl)c3)cccc12)N1CCCCC1 [Example 8, (7-(2-chloropyridin-4-yl)pyrazolo[1,5-a]pyridin-3-yl)(piperidin-1-yl)methanone] | ≤ 0.1 µM | > 1.5
18 | O=C(c1cnn2c(-c3ccc(Cl)cc3)cccc12)N1CCCCC1 [Example 12, (7-(4-chlorophenyl)pyrazolo[1,5-a]pyridin-3-yl)(piperidin-1-yl)methanone] | ≤ 0.1 µM | > 1.5
19 | O=C(c1cnn2c(-c3ccc([N+](=O)[O-])nc3)cccc12)N1CCCCC1 [Example 16, (7-(6-nitropyridin-3-yl)pyrazolo[1,5-a]pyridin-3-yl)(piperidin-1-yl)methanone] | ≤ 0.1 µM | > 1.5
20 | Nc1ccc(-c2cccc3c(C(=O)N4CCCCC4)cnn23)cn1 [Example 17, (7-(6-aminopyridin-3-yl)pyrazolo[1,5-a]pyridin-3-yl)(piperidin-1-yl)methanone] | ≤ 0.1 µM | < 1.5
21 | O=C(c1cnn2c(-c3ccc(F)nc3)cccc12)N1CCCCC1 [Example 19, (7-(6-fluoropyridin-3-yl)pyrazolo[1,5-a]pyridin-3-yl)(piperidin-1-yl)methanone] | ≤ 0.1 µM | > 1.5
22 | COc1ccc(-c2cccc3c(C(=O)N4CCCCC4)cnn23)cc1C(F)(F)F [Example 20, (7-(4-methoxy-3-(trifluoromethyl)phenyl)pyrazolo[1,5-a]pyridin-3-yl)(piperidin-1-yl)methanone] | ≤ 0.1 µM | > 1.5
23 | O=C(c1cc2nc(-c3ccc4c(c3)OCO4)ccc2[nH]1)N1CCCCC1 [Example 173, (5-(benzo[d][1,3]dioxol-5-yl)-1H-pyrrolo[3,2-b]pyridin-2-yl)(piperidin-1-yl)methanone] | ≤ 0.1 µM | –
24 | O=C(c1cc2c(-c3ccc4c(c3)OCO4)nccc2[nH]1)N1CCCCC1 [Example 174, (4-(benzo[d][1,3]dioxol-5-yl)-1H-pyrrolo[3,2-c]pyridin-2-yl)(piperidin-1-yl)methanone] | > 1 µM | –
25 | O=C(c1cc2c(-c3ccc4c(c3)OCO4)cncc2[nH]1)N1CCCCC1 [Example 175, (4-(benzo[d][1,3]dioxol-5-yl)-1H-pyrrolo[2,3-c]pyridin-2-yl)(piperidin-1-yl)methanone] | > 1 µM | –
26 | O=C(c1cc2c(-c3ccc4c(c3)OCO4)ncnn2c1)N1CCCCC1 [Example 176, (4-(benzo[d][1,3]dioxol-5-yl)pyrrolo[2,1-f][1,2,4]triazin-6-yl)(piperidin-1-yl)methanone] | > 1 µM | –
27 | O=C(c1cc2nc(-c3ccc4c(c3)OCCO4)ccc2[nH]1)N1CCCCC1 [Example 178, (5-(2,3-dihydrobenzo[b][1,4]dioxin-6-yl)-1H-pyrrolo[3,2-b]pyridin-2-yl)(piperidin-1-yl)methanone] | 0.1 to 1 µM | –
28 | COc1ccc(-c2ccc3[nH]c(C(=O)N4CCCCC4)cc3n2)cc1 [Example 179, (5-(4-methoxyphenyl)-1H-pyrrolo[3,2-b]pyridin-2-yl)(piperidin-1-yl)methanone] | 0.1 to 1 µM | –
29 | O=C(c1cc2nc(-c3ccc(Cl)cc3)ccc2[nH]1)N1CCCCC1 [Example 180, (5-(4-chlorophenyl)-1H-pyrrolo[3,2-b]pyridin-2-yl)(piperidin-1-yl)methanone] | 0.1 to 1 µM | –
30 | O=C(c1cc2nc(-c3ccncc3)ccc2[nH]1)N1CCCCC1 [Example 184, piperidin-1-yl(5-(pyridin-4-yl)-1H-pyrrolo[3,2-b]pyridin-2-yl)methanone] | 0.1 to 1 µM | –
31 | O=C(c1cc2nc(-c3cccc(Cl)c3)ccc2[nH]1)N1CCCCC1 [Example 185, (5-(3-chlorophenyl)-1H-pyrrolo[3,2-b]pyridin-2-yl)(piperidin-1-yl)methanone] | 0.1 to 1 µM | –
32 | O=C(c1cc2nc(-c3ccc4cn[nH]c4c3)ccc2[nH]1)N1CCCCC1 [Example 190, (5-(1H-indazol-6-yl)-1H-pyrrolo[3,2-b]pyridin-2-yl)(piperidin-1-yl)methanone] | ≤ 0.1 µM | –
33 | Cc1nn(C)c(C)c1S(=O)(=O)Nc1cccc2c(C(=O)N3CCCCC3)cnn12 [Example 240, 1,3,5-trimethyl-N-[3-(piperidine-1-carbonyl)pyrazolo[1,5-a]pyridin-7-yl]pyrazole-4-sulfonamide] | > 1 µM | –
34 | O=C(c1cnn2c(-c3ccc(C(F)(F)F)nc3Cl)cccc12)N1CCCCC1 [Example 272, (7-(2-chloro-6-(trifluoromethyl)pyridin-3-yl)pyrazolo[1,5-a]pyridin-3-yl)(piperidin-1-yl)methanone] | ≤ 0.1 µM | –
